In patent publication US7704976B2, “Use of N-acetyl-D-glucosamine for preparing medicines for urogenital tract infection's treatment and prevention” (Third Military Medical University, Chinese People's …, priority 2002, dated 2010):

Legend:
Proteus Mirabilis = assay: Promoting wave test (bio-wave model on LB plate); format: cell-based; details: final concentration of 0.5% on LB plate, 37° C.
Excerpt: 1. […] 1.3 Experimental Method:

[1] = in vivo
Excerpt: II. Toxicological Test of the Compound of Formula (I), Including:
• 1. Acute toxicity test: including tests of oral administration, intravenous injection administration, and maximum limit amount for administration. • 2. Ames test; • 3. Micronucleus test of mouse bone marrow cell; • 4. Abnormality test of mouse sperm; • 5. Aberration test of mouse testis chromosome; • 6. Chronic lethal test; • 7. Subchronic toxicity (feed for 90 days) test; • 8. Traditional deformity-inducing test.

bacillus pyocyaneus = assay: Test of effect for suppressing bacillus pyocyaneus transplantation on skin
Excerpt: (§1) III. Tests of Effect for Suppressing Bacterial Transplantation
(§2) • 1. Test of effect for suppressing bacillus pyocyaneus transplantation on skin • 2. Test of suppressing bacteria

bacteria = assay: Test of suppressing bacteria; format: cell-based
Excerpt: as §1, §2

Gonorrhea = assay: Clinic test, gonorrhea patients; format: in vivo, human; details: 2% aerosol topically sprayed to infected areas
Method: (§3) • 1. 170 patients suffering various venereal diseases were picked out, including 50 patients suffering gonorrhea, 50 patients suffering syphilis, 20 patients suffering condyloma acuminatum virus infection, 40 patients suffering trichomonas vaginalis infection, and 10 patients suffering candida albicans. 2% N-acetyl-D-glucosamine aerosol was topically sprayed to infected areas, and the effects of the compound of formula (I) for treatment of urogenital tract infections were determined by smearing and microscopic examination, and by isolation and culture.
(§4) Observation of therapeutical effect of N-acetyl-D-glucosamine for treatment of urogenital tract infections

Syphilis = assay: Clinic test, syphilis patients; format: in vivo, human; details: 2% aerosol topically sprayed to infected areas
Method: as §3, §4

[2] = tested on: condyloma acuminatum virus infection; assay: Clinic test, condyloma acuminatum virus infection patients; format: in vivo, human; details: 2% aerosol topically sprayed to infected areas
Method: as §3, §4

[3] = tested on: trichomonas vaginalis infection; assay: Clinic test, trichomonas vaginalis infection patients; format: in vivo, human; details: 2% aerosol topically sprayed to infected areas
Method: as §3, §4

candida albicans = assay: Clinic test, candida albicans patients; format: in vivo, human; details: 2% aerosol topically sprayed to infected areas
Method: as §3, §4

[4] = tested on: various urogenital tract infections

## CC(=O)N[C@H]1C(O)O[C@H](CO)[C@@H](O)[C@@H]1O (stereo partly drawn) [N-acetyl-D-glucosamine]
Proteus Mirabilis
  promoting wave function (ring pattern versus control): many fine waves on each ring emerged
[1]
  dosage at which acute toxicosis reaction had not appeared: more than 2 g/kg
Bacillus pyocyaneus
  transplantation and growth of bacillus pyocyaneus: suppressed the transplantation and growth of bacillus pyocyaneus
bacteria
  bactericidal or bacteriostasis effect: essentially exhibited no bactericidal or bacteriostasis effect
Gonorrhea
  Effective rate (%): 90%
  Ineffective rate (%): 10%
Syphilis
  Effective rate (%): 60%
  Ineffective rate (%): 40%
[2]
  Effective rate (%): 80%
  Ineffective rate (%): 20%
[3]
  Effective rate (%): 75%
  Ineffective rate (%): 25%
Candida albicans
  Effective rate (%): 90%
  Ineffective rate (%): 10%
[4]
  effective rate for treatment of various urogenital tract infections: 79%
